Measurements as given in patent US20100029575A1, “N-Oxides of Kappa Receptor Peptides” (priority 2006, published 2010).
Several values for one entry are separate records, joined by “and”; a condition that tells them apart may be missing. Equal values may be shown once. Square brackets hold non-standard residues; d marks the D form. Peptide text beside a SMILES is read from it. * marks the point of attachment. dNle = CCCC[C@@H](N)C(=O)O; X1 = [O-][n+]1ccc(CN*)cc1

How the values were obtained:
P450 2C9 = P450 2C9 (Homo sapiens, UniProt P11712); assay: P450 2C9 inhibition; assay type: in vitro ADME
Protocol: (§1) Enzyme assays are well known in the art and CYP450 enzymes from several species have been cloned. Although these cloned enzymes readily allow a particular candidate compound, e.g., a peptide, to be screened, natural sources of CYP450 enzymes, e.g., liver microsomes, are also useful for screening, as is well known in the art. Preferred analogs have a Ki for CYP450 enzymes of about 10 micromolar (uM) or more, whereas more preferred analogs have a Ki for […] of about 100 uM or more. For the purpose of identifying useful compounds of the invention, the IC50 is a useful approximation of the Ki.

cytochrome P450 enzymes = assay: Cytochrome P450 enzyme activities; assay type: in vitro ADME; conditions: summary of Table 4
Protocol: as §1

Mu Opioid Receptor = molecular target: T1, Mu Opioid Receptor (Rattus norvegicus, UniProt P33535); assay: Mu opioid receptor binding, competitive displacement of bound radioligand (rat brain membranes)
T1 construct: from tissue; host or cells: rat brain membranes
Excerpt: (§2) Receptor assays are well known in the art and kappa opioid receptors from several species have been cloned, as have mu and delta opioid receptors. Kappa opioid receptors as well as mu and delta opioid receptors are classical, seven-transmembrane spanning, G-protein coupled receptors. Although these cloned receptors readily allow a particular candidate compound, e.g., a peptide, to be screened, natural sources of mammalian opioid receptors are also useful for screening, as is well known in the art (Dooley C T et al. Selective ligands for the mu, delta, and kappa opioid receptors identified from a single mixture based tetrapeptide positional scanning combinatorial library. J. Biol. Chem. 273:18848-56, 1998). Thus, screening against both kappa and mu opioid receptors, whether of recombinant or natural origin, may be carried out in order to determine the selectivity of the compound(s) for the kappa relative to the mu opioid receptor.
(§3) Binding affinity refers to the strength of interaction between ligand and receptor. […] These studies can be performed using cloned kappa and mu opioid receptors expressed in stable transfected cell lines or naturally occurring opioid receptors from a receptor-enriched tissue source, as noted above. In these studies, the test compounds (unlabeled ligands) are used at increasing concentrations to displace the specific binding of a radiolabeled ligand that has high affinity and selectivity for the receptor studied. Tritiated U-69,593 and DAMGO can be used as ligands in kappa and mu opioid receptor studies, respectively. Both ligands are commercially available (NEN-Dupont). DAMGO is an acronym for [D-Ala^2, MePhe^4, Gly-ol^5]-enkephalin. The affinity of the radioligands is defined by the concentration of radioligand that results in half-maximal specific binding (KD) in saturation studies. The affinity of the test compound (unlabeled or cold ligand) is determined in competition binding studies by calculating the inhibitory constant (Ki) according to the following formula:
(§4) where IC50=Concentration of the cold ligand that inhibits 50% of the specific binding of the radioligand
(§5) F=free radioligand concentration
(§6) KD=affinity of the radioligand determined in saturation studies.
(§7) When performing these assays under specific conditions with relatively low concentrations of receptor, the calculated Ki for the test compound is a good approximation of its dissociation constant KD, which represents the concentration of ligand necessary to occupy one-half (50%) of the binding sites. […]
(§8) These binding assays employing kappa opioid receptors and mu opioid receptors are straightforward to perform and can be readily carried out with large numbers of compounds to determine whether such compounds are kappa opioid receptor-selective and have high affinity. […]

Kappa Opioid Receptor [1] = molecular target: T2, Kappa Opioid Receptor (Mus musculus, UniProt P33534); assay: Functional second messenger assay, Gi-mediated inhibition of adenylate cyclase (cAMP, mouse brain); assay type: biochemical; conditions: for EC50: Kappa Opioid Receptor Activity EC50, cAMP; for Kappa Opioid Receptor Activity Pct Max: cAMP
T2 construct: (cAMP, mouse brain); from tissue; host or cells: mouse brain

P450 3A4 [2] = molecular target: T3, P450 3A4 (Homo sapiens, UniProt P08684); assay: P450 3A4/BFC inhibition; assay type: in vitro ADME
Protocol: as §1

P450 3A4 [3] = molecular target: T3, P450 3A4; assay: P450 3A4/BQ inhibition; assay type: in vitro ADME
Protocol: as §1

Kappa Opioid Receptor [4] = molecular target: T4, Kappa Opioid Receptor (Cavia porcellus, UniProt P41144); assay: Kappa opioid receptor binding, competitive displacement of bound radioligand (guinea pig brain membranes); conditions: for IC50: Kappa Opioid Receptor Binding IC50, guinea pig brain; for Kappa Opioid Receptor Binding Pct Max: guinea pig brain
T4 construct: from tissue; host or cells: guinea pig brain membranes
Excerpt: as §2, §3, §4, §5, §6, §7, §8

P450 1A2 = molecular target: T5, P450 1A2 (Homo sapiens, UniProt P05177); assay: P450 1A2 inhibition; assay type: in vitro ADME
T5 sequence (P05177 1-516): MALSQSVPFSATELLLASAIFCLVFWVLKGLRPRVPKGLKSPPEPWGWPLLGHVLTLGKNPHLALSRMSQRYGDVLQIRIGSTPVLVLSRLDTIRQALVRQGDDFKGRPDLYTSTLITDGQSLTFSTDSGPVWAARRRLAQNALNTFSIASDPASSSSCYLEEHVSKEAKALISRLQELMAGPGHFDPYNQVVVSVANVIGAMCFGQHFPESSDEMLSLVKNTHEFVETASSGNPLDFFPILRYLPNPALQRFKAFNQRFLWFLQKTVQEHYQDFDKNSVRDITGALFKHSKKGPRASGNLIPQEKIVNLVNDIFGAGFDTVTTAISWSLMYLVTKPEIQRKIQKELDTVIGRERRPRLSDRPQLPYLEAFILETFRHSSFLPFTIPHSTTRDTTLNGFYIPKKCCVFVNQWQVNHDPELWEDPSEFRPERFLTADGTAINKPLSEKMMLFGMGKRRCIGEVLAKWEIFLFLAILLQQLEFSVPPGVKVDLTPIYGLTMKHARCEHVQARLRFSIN
Protocol: as §1

SMILES: CCCC[C@@H](NC(=O)[C@@H](Cc1ccccc1)NC(=O)[C@H](N)Cc1ccccc1)C(=O)N[C@H](CCCNC(=N)N)C(=O)NCc1cc[n+]([O-])cc1 [Peptide No. 1, H-D-Phe-D-Phe-D-Nle-D-Arg-NH-4-picolyl-N-oxide] (H-[dF][dF][dNle][dR]-X1)
- IC50 (P450 2C9): > 10000 nM
- P450 2C9 Inhibition Pct Max (P450 2C9; Mean): 26 Pct
- P450 2C9 Inhibition Pct Max (P450 2C9; individual samples): 21 Pct and 31 Pct
- inhibitory activity on several cytochrome P450 enzyme activities (cytochrome P450 enzymes): absence of significant inhibitory activity
- Mu Opioid Receptor Binding IC50 (Mu Opioid Receptor; rat brain): too high to determined
- maximal binding inhibition at MOR (Mu Opioid Receptor; rat brain membranes): 15.5%
- Mu Opioid Receptor Binding Pct Max (Mu Opioid Receptor; rat brain, Sample 1): 15.5 Pct
- Mu Opioid Receptor Binding IC50 (Mu Opioid Receptor; rat brain, listed as Peptide1): No Fit
- EC50 (Kappa Opioid Receptor [1]; Mean): 0.42 nM
- EC50 (Kappa Opioid Receptor [1]; individual samples): 0.3 nM and 0.57 nM
- Kappa Opioid Receptor Activity Pct Max (Kappa Opioid Receptor [1]; Mean): 101.43 Pct
- Kappa Opioid Receptor Activity Pct Max (Kappa Opioid Receptor [1]; individual samples, listed as Peptide 1): 92.46 Pct and 110.41 Pct
- P450 3A4/BFC Inhibition Pct Max (P450 3A4 [2]; Mean): 26 Pct
- P450 3A4/BFC Inhibition IC50 (P450 3A4 [2]; individual samples): No Fit
- P450 3A4/BFC Inhibition Pct Max (P450 3A4 [2]; individual samples): 22 Pct and 17 Pct and 40 Pct
- P450 3A4/BQ Inhibition Pct Max (P450 3A4 [3]; Mean): 18 Pct
- P450 3A4/BQ Inhibition IC50 (P450 3A4 [3]; individual samples): No Fit
- P450 3A4/BQ Inhibition Pct Max (P450 3A4 [3]; individual samples): 15 Pct and 21 Pct
- IC50 (Kappa Opioid Receptor [4]; Mean): ~6.3 nM and 6.3 nM
- IC50 (Kappa Opioid Receptor [4]; individual samples): 2.6 nM and 9.4 nM and 4.2 nM
- Kappa Opioid Receptor Binding Pct Max (Kappa Opioid Receptor [4]; Mean): 109.4 Pct
- Kappa Opioid Receptor Binding Pct Max (Kappa Opioid Receptor [4]; individual samples, listed as Peptide1): 105.2 Pct and 117.3 Pct and 105.6 Pct
- P450 1A2 Inhibition Pct Max (P450 1A2; Mean): 13 Pct
- P450 1A2 Inhibition IC50 (P450 1A2; individual samples): No Fit
- P450 1A2 Inhibition Pct Max (P450 1A2; individual samples): 15 Pct and 10 Pct
